The test system of data set [1] is A/Hong Kong/2369/2009 (H1N1) oseltamivir resistant. The data set is described as follows: microbe, parasite or virus in culture. The data set is classed as cell-based. As to conditions: Influenza A virus, H1N1, MDCK, read-out: IC90, VYR Assay.
Data set [2] shares this test system.
Data set [3] has the same test system. The source holds these as a separate data set.
Data set [4] has the same test system. The data set is described as follows: microbe, parasite or virus in culture. The settings on record: Influenza A virus, H1N1, MDCK, read-out: IC50, Visual Assay.
The test system is the same in data set [5]. The data set is described as follows: microbe, parasite or virus in culture. The settings on record: Influenza A virus, H1N1, MDCK, read-out: IC50, Neutral Red Uptake Assay.

SMILES strings stand for the structures. Where two headings read alike, the source gives them in different places.

What is called IC90 is the concentration needed for an effect of 90%. As a reminder, the IC50 is the point on the concentration scale where inhibition reaches its midpoint. Take `Nc1ccn([C@@H]2O[C@H](CO)[C@@H](O)C2(F)F)c(=O)n1` [2’-deoxy-2’, 2’-difluorocytidine, reference compound]: the IC90 in data set [1] worked out at 30 nM. The “SI (CC50/IC50), Visual Assay” value in data set [2] was more than 200. In addition, the “SI (CC50/IC50), Neutral Red Uptake Assay” value in data set [3] is more than 1900. The IC50 in data set [4] worked out at 50 nM; in data set [5], 54 nM.
As to `Nc1ccn([C@@H]2O[C@H](CO)[C@@H](O)[C@H]2F)c(=O)n1` [2’-deoxy-2’-fluorocytidine, 2'-deoxy-2'-fluorocytidine], in data set [1], the IC90 was 6300 nM. In data set [2], the “SI (CC50/IC50), Visual Assay” value is recorded as more than 48. Also, in data set [3], the “SI (CC50/IC50), Neutral Red Uptake Assay” value is listed as more than 12.8. Further, the IC50 was 2100 nM in data set [4] and 7800 nM in data set [5].
